A short description of data set [1]: Dissociation constant. It is filed as physicochemical. From the text: (10) Dissociation constant The pKa is 3.0.
A short description of data set [2]: physchem. It is filed as physicochemical. The note with it: for remaining at 1 h, 70 µM / remaining at 2 h, 70 µM / remaining at 4 h, 70 µM / remaining at 18 h, 70 µM / remaining at 24 h, 70 µM: aqueous solution; for Remaining ratio: 0 min, 70 uM. How it is done:
2-O-α-D-Glucosyl-L-ascorbic acid was compared respectively to the 6-O-α-D-glucosyl-L-ascorbic acid disclosed in Japanese Patent Publication No. 38,158/73, and L-ascorbic acid for their stability in aqueous solution. More particularly, each sample was adjusted to a concentration of 70 micromoles and to pH 7.0 or 2.0, placed in a cuvette, and measured for its absorbance at either 260 nm and pH 7.0 or at 245 nm and pH 2.0 while keeping the solution at 45° C. The remaining ratio (%) was calculated with the absorbance.

Data set [3] can be described thus: Physical properties: hygroscopicity, deliquescence, loss on drying. To be noted: for Hygroscopicity and deliquescence: ambient conditions. The format is physicochemical. How it is done: (12) Physical properties and color: Colorless and transparent crystal. […] Loss on drying at 130° C. for 2 hours is less than 0.5 w/w %. FIG. 5 is the microscopic view of a crystal growing in a supersaturated solution.

The test system of data set [4] is α-glucosidase. Put plainly: Hydrolysis by α-glucosidase. The note with it: products at molar ratio 1:1. The format is biochemical. How it is done: (§1) (14) Structual element: Hydrolyzable by α-glucosidase or by treatment with 1N hydrochloric acid at 100° C. for 5 minutes to form L-ascorbic acid and D-glucose at a molar ratio of 1:1.
A short description of data set [5]: Solubility in water. The format is physicochemical. To be noted: 25° C.
The nature of data set [6]: Solubility in solvents. The format is physicochemical.
The subject of data set [7] is dd mice. Description: Acute toxicity, oral. It is filed as in vivo. From the text:
A crystalline 2-O-α-D-glucopyranosyl-L-ascorbic acid specimen, prepared by the method in Experiment 1, was orally administered to 7 week-old dd mice for acute toxicity test. As the result, no mouse died when administered with up to […] of the specimen, and higher dose was difficult.

Data set [8] is described as follows: Hydrolysis with 1N hydrochloric acid. The format is physicochemical. The note with it: 100° C., 5 minutes, products at molar ratio 1:1. How it is done:
as §1

Data set [9] is described as follows: Coloring reaction: direct reducing activity. The note with it: 2,6-dichlorophenolindophenol. The format is biochemical.

Molecules are shown by their SMILES.

In general, pKa refers to the negative logarithm of the acid dissociation constant. Usually share remaining stands for the share of the starting amount still present when the sample was taken. Turning to `O=C1O[C@H]([C@@H](O)CO)C(O)=C1O[C@H]1O[C@H](CO)[C@@H](O)[C@H](O)[C@H]1O` [2-O-α-D-glucopyranosyl-L-ascorbic acid], the pKa in [1] was determined as 3. In addition, in [2] (pH 2), the share remaining at 1 h, 70 µM worked out at 100%; the amount remaining at 2 h, 70 µM stood at 100%; the amount remaining at 4 h, 70 µM is 100%; the amount remaining at 18 h, 70 µM is 100%. For the same molecule, the fraction remaining at 24 h, 70 µM in data set [2] (pH 2) was 100%. In addition, in data set [2] (pH 7), the fraction remaining at 1 h, 70 µM stood at 100%; the fraction remaining at 2 h, 70 µM is 100%; the fraction remaining at 4 h, 70 µM was 100%; the amount remaining at 18 h, 70 µM came to 100%. Also, the fraction remaining at 24 h, 70 µM in [2] (pH 7) was determined as 100%.
Take `O=C1O[C@H]([C@@H](O)CO[C@H]2O[C@H](CO)[C@@H](O)[C@H](O)[C@H]2O)C(O)=C1O` [6GAsA, 6-O-α-D-glucosyl-L-ascorbic acid]: in data set [2] (pH 2), the Remaining ratio is 100%; the amount remaining at 1 h, 70 µM worked out at 99%; the fraction remaining at 2 h, 70 µM worked out at 98%; the fraction remaining at 4 h, 70 µM is 90%. In [2] (pH 2), the share remaining at 18 h, 70 µM stood at 25% and the fraction remaining at 24 h, 70 µM turned out to be 12%. In [2] (pH 7), the Remaining ratio amounted to 100%; the fraction remaining at 1 h, 70 µM worked out at 88%; the amount remaining at 2 h, 70 µM came to 72%; the fraction remaining at 4 h, 70 µM came out at 43%. Moreover, in data set [2] (pH 7), the share remaining at 18 h, 70 µM came to 7% and the amount remaining at 24 h, 70 µM is 4%.
Turning to `O=C1O[C@H]([C@@H](O)CO)C(O)=C1O` [AsA, L-ascorbic acid], in [2] (pH 2), the Remaining ratio is 100%; the share remaining at 1 h, 70 µM turned out to be 98%; the fraction remaining at 2 h, 70 µM was determined as 95%; the amount remaining at 4 h, 70 µM was 88%. In data set [2] (pH 2), this molecule gave a fraction remaining at 18 h, 70 µM of 12% and a share remaining at 24 h, 70 µM of 4%. In [2] (pH 7), the Remaining ratio came out at 100%; the share remaining at 1 h, 70 µM came out at 80%; the amount remaining at 2 h, 70 µM was 61%; the fraction remaining at 4 h, 70 µM came to 32%. In [2] (pH 7), the fraction remaining at 18 h, 70 µM was 1% and the fraction remaining at 24 h, 70 µM was 1%.
For `O=C1O[C@H]([C@@H](O)CO)C(O)=C1O[C@H]1O[C@H](CO)[C@@H](O)[C@H](O)[C@H]1O` [amorphous 2-O-α-D-glucopyranosyl-L-ascorbic acid] [reference compound], in [3], the Hygroscopicity and deliquescence entry is reported as “strongly hygroscopic”.
As for `O=C1O[C@H]([C@@H](O)CO)C(O)=C1O[C@H]1O[C@H](CO)[C@@H](O)[C@H](O)[C@H]1O` [crystalline 2-O-α-D-glucopyranosyl-L-ascorbic acid], the “Hydrolysis to L-ascorbic acid and D-glucose” value in data set [4] and in data set [8] was “Hydrolyzable” throughout. Further, the Loss on drying entry in data set [3] (130° C., 2 hours) was “less than 0.5 w/w %”. Further, the Hygroscopicity and deliquescence entry in data set [3] was “Free of hygroscopicity and deliquescence”. Besides, in data set [5], the Solubility result is “One hundred and twenty-five”. In addition, the Solubility in solvents result in data set [6] (0.1N acetic acid) is recorded as “Readily soluble”; in data set [6] (0.1N sodium hydroxide) it was “Readily soluble”; in [6] (benzene), “insoluble”; in data set [6] (chloroform), “insoluble”; in [6] (ethanol), “soluble”; in data set [6] (ether), “insoluble”. Moreover, the Solubility in solvents result is “insoluble” in data set [6] (ethyl acetate), “soluble” in data set [6] (methanol) and “Readily soluble” in [6] (water). In addition, the “Dose up to which no mouse died” value in data set [7] (7 week-old dd mice, higher dose was difficult) was “up to 5 g”. The Mortality entry in data set [7] (7 week-old dd mice, up to 5 g of the specimen) is reported as “no mouse died”. The Toxicity result in [7] (dd mice, overall conclusion) is reported as “extremely low in toxicity”. For the same molecule, the Remaining ratio in data set [2] (pH 2) and in [2] (pH 7) was 100% each time. Moreover, in data set [9], the Direct reducing activity entry is recorded as “no direct reducing activity”.

The values are drawn from patent publication US5084563A, “Crystalline 2-O-α-D-glucopyranosyl-L-ascorbic acid, and its preparation and uses” (priority 1989, dated 1992).
